Experiment [1] relates to NMDA-induced excitatory response of red nucleus cells. In words: Red nucleus test (Test B). The format is in vivo, Rats. The conditions noted are these: Rattus norvegicus. On the procedure: The purpose of this test is to determine the effects of intravenously administered glycine antagonists on the NMDA-induced excitatory response of red nucleus cells.
The procedure for the red nucleus test is as follows. Rats are anesthetized with chloral hydrate (400 mg/kg ip) and the femoral vein is catheterized for iv drug administration. Five-barrel micropipettes are stereotaxically positioned in the red nucleus. Typically, three to four of the five barrels are filled as follows: the recording barrel with 2M potassium citrate, the current balancing barrel with 4M NaCl, the drug barrel with 25mM NMDA, and another drug barrel with 2.5mM quisqualic acid (QA is only used in selectivity studies). NMDA is iontophoretically applied with an ejection current that is adjusted depending on the sensitivity of each individual red nucleus cell. The NMDA is cycled on and off (usually 30 - 60 sec. on and 60 - 120 sec. off) and the firing rate of the cell during each period is recorded. Once the baseline firing rate of the cell has been established, the test drug is administered iv. The effect of the drug on the NMDA-induced excitatory response of the red nucleus cell can be both qualitatively and quantitatively evaluated from the recordings and the raw data accumulated.

For experiment [2], the target named is T1, glycine receptor of the NMDA receptor complex (Rattus norvegicus, UniProt P35439).
T1 construct: Freshly dissected cortices and hippocampi are homogenized in 0.32 M sucrose; from tissue; host or cells: rat cerebral cortex and hippocampus synaptic membranes
Kind of experiment: [3H]-glycine binding assay (Test A). More on the design: species or system Sprague-Dawley rats. The settings on record: 20 nanomolar [3H]-glycine, rat synaptic membranes, pH 7.1, 30 minutes at 4 °C. On the procedure: In the [^3H]-glycine binding assay, neuronal synaptic membranes are prepared from adult (about 250 g) male Sprague-Dawley rats. Freshly dissected cortices and hippocampi are homogenized in 0.32 M sucrose (110 mg/mL). Synaptosomes are isolated by centrifugation (1000 xg, 10 min), the supernatant is pelleted (20,000 xg, 20 min) and resuspended in double-distilled water. The suspension was centrifuged for 20 minutes at 8,000 xg. The resulting […] and buffy coat are washed twice (48,000 xg, 10 mins, resuspension in double-deionized water). The final pellet is quickly frozen (dry ice/ethanol bath) under double-deionized water and stored at -70 °C.
On the day of the experiment, thawed synaptic membranes are homogenized with a Brinkmann Polytron (tm, Brinkmann Instruments, Westbury, N.Y.) tissue homogenizer in 50 millimolar tris(hydroxymethyl)aminomethane citrate, pH 7.1. The membranes are incubated with 0.04% Sufact-AMPS X100 (tm, Pierce, Rockford, IL) in buffer for 20 minutes at 37 °C and washed six times by centrifugation (48,000 xg, 10 min) and resuspended in buffer. The final pellet is homogenized at 200 mg wet weight/mL of the buffer for the binding assay.
For [^3H]-glycine binding at the N-methyl-D-aspartate receptor, 20 nanomolar [^3H]-glycine (40-60 Ci/mmol, New England Nuclear, Boston, MA) is incubated with the membranes suspended in 50 millimolar tris (hydroxymethyl)aminomethane citrate, pH 7.1 for 30 minutes at 4 °C. Glycine, 1 millimolar, is used to define the nonspecific binding. Bound [^3H]-glycine is isolated from free using a Brandel (Biomedical Research and Development Laboratories, Gaithersburg, MD) cell harvester for vacuum filtration over glass fiber filters (Whatman GF/B from Brandel, Gaithersburg, MD) presoaked in 0.025% polyethylenimine. The samples retained on the glass fiber filters are rinsed 3 times with a total of 2.5 mL ice cold buffer. Radioactivity is estimated by liquid scintillation counting. IC50 values are obtained from a least-squares regression of a logit-log transformation of the data. […]

For experiment [3], the system named is Male SHR rats. Kind of experiment: Rat Middle Cerebral Artery test (Test C), permanent MCA occlusion. The experiment is classed as in vivo. The settings on record: 24 hours after MCA/common carotid artery occlusion. As for the experimental part:
Male SHR rats weighing 280-320 g are used for these studies. The method used for permanent middle cerebral artery (MCA) occlusion is as described by Brint et al (1988). […] Following occlusions, drugs are administered intravenously via jugular catheter. Twenty-four hours after MCA/common carotid artery occlusion, the animals are sacrificed and their brains quickly removed. Coronal sections of 1 mm thickness are cut using a vibratome and stained with 2,3,5, triphenyl, 2H-tetrazolium chloride (TTC) dye. Following staining, necrotic tissue is readily distinguished from the intact brain and the area of infarcted cortex can be traced on an image analyzer. The infarct volume for each section is quantified with an image analyzer, and the total infarct volume is calculated with a program that summed all interval volume. See S. Brint et al. J. Cerebral Blood Flow 8:474-485 (1988). The statistical analysis of the difference between the volume of ischemic damage in the vehicle control and drug-treated animals is analyzed by student's-t-test. […] For example, the compound of example 145 at an I.V. dose of 10 mgs/kg/hr caused an infarct % volume change of -42% while a 5.0 mg/kg/hr I.V. dosage caused a -8% reduction.

The structures appear in SMILES notation. Read-outs that look alike come from different tables or passages of the source.

Regarding `NC1CCN(O)C1=O` (racemic) [HA-966], the ED50 in experiment [1] (reference agents, intravenous, anesthetized rats, read-out: ID50 (the source's name)) was 7.9 mg/kg. Consider `C/C(=C\C(N)C(=O)O)CP(=O)(O)O` (centres unmarked) [CGP 37849], for which the ED50 in experiment [1] (iv, read-out: ID50) was 1.7 mg/kg. One may read the IC50 as the concentration that inhibits the measured activity by half. A high value points to weaker potency. For `Cc1ccc(-n2nc(O)c3c(c2=O)Cc2ccc(Cl)cc2N3)cc1` [Example 145, 7-Chloro-4-hydroxy-5,10-dihydro-2-(4'-methylphenyl)pyridazino[4,5-b]-quinoline-1-one], in experiment [1] (as the meglumine salt (N=5), administered iv, read-out: ID50 (the source's name)), the ED50 came out at 6.54 mg/kg. In experiment [2], this molecule displayed an IC50 of 45 nM. In addition, the “infarct % volume change” value is given as -8% in experiment [3] (5.0 mg/kg/hr I.V. dosage) and -42% in experiment [3] (I.V. dose of 10 mgs/kg/hr). Regarding `O=c1c2c(c(O)nn1-c1ccccc1)Nc1cc(Cl)ccc1C2` [Example 147, 7-chloro-4-hydroxy-2-phenyl-5,10-dihydro-2H-pyridazino [4,5-b]quinolin-1-one], in experiment [2], the IC50 was 17 nM. The molecule `COc1ccc(-n2nc(O)c3c(c2=O)Cc2ccc(Cl)cc2N3)cc1` [Example 148, 7-chloro-4-hydoxy-2-(4'-methoxyphenyl)-5,10-dihydro-2H-pyridazino[4,5-b]quinoline-1-one] yielded an IC50 in experiment [2] of 440 nM.

For the origin of these results see patent EP0790996B1, “PYRIDAZINOQUINOLINE COMPOUNDS” (AstraZeneca AB, priority 1994, dated 1996).
